Measured values as given in US10988522B2, “Proteolically resistant cyclotides with angiotensin 1-7 like activity” (University of Southern California, priority 2016, dated 2021).

Experiments:
[1] = system: human lung adenocarcinoma xenografts; details: cited from earlier work
human lung cancer cells = details: through activation of MAS1; cited from earlier work
cyclooxygenase-2 (COX-2) = details: xenograft tumor; cited from earlier work
cyclooxygenase 1 (COX-1) = details: same xenograft tumor; cited from earlier work
recombinant human MAS1 = molecular target: T1, recombinant human MAS1 (Homo sapiens, UniProt P04201); assay: MAS1 activation: cell-based fluorescence assay of NO release in CHO cells stably transfected with MAS1; details: for intracellular concentration of NO in the presence of MAS1 antagonist A779: A779 at 0.1 μM for 15 min before addition; for intracellular concentration of NO (fluorescence): no antagonist, 2 hours
T1 construct: expressed in transfected cells; host or cells: CHO cells, stably transfected with pTEJ-8 vector
T1 sequence (P04201 1-325): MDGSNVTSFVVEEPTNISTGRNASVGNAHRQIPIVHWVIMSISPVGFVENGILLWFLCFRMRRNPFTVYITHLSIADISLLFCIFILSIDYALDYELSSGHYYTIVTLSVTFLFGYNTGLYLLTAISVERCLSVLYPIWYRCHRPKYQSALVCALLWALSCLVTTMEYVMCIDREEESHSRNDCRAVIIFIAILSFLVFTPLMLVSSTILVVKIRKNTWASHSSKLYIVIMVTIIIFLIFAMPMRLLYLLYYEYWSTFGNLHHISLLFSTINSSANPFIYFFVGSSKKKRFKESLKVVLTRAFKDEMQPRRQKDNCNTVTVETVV
Method: CHO cells stably transfected with pTEJ-8 vector expressing recombinant human MAS1 clone are grown to confluency. After washing, cells are incubated for a short time in 700 μL of supplemented Tyrode's salts containing 10 μM 2-phenyl-4,4,5,5-tetramethylimidazoline-1-oxyl-3-oxide (PTIO), 100 μM 2,3-diaminonaftalene (DAN), and 1 mM L-arginine. When using antagonist for competition assays, cells are exposed to MAS1 antagonist A779 (D-Ala^7-AT 1-7) at 0.1 μM for 15 min before addition of the cyclotides to be tested. Different concentrations of the cyclotides to be analyzed are added to the cell medium and the plates are agitated for 1 min before being placed into the incubator for 2 hours. After 2 hours, the cellular supernatants are transferred to opaque 96 well plates, and the amount of released NO is measured by fluorescence (λex=380 nm, λem=425 nm).

[2] = Method: This was accomplished by incubating the corresponding peptides in human serum at 37° C. The quantitative analysis of undigested polypeptides was performed using liquid chromatography coupled with tandem mass spectrometry (LC-MS/MS). Naturally occurring MCoTI-cyclotides present a very rigid structure, which makes them extremely stable to proteolytic degradation.
Human serum was spun down at 15,000 rpm for 10 min to separate the lipid components. Peptides (about 15 μg dissolved in 15 μl PBS) were mixed with 150 μl human serum and incubated in a 37° C. water bath. Aliquot samples (15 μL) were taken at different time points and serum protein were precipitated with about 70% MeCN at 4° C. for 10 min. The supernatant was separated, lyophilized, dissolved in 5% MeCN in water containing 0.1% formic acid, and analyzed by HPLC-MS/MS.

Molecule	tumor growth [1]	serum-stimulated growth of human lung cancer cells (human lung cancer cells)	COX-2 activity (cyclooxygenase-2 (COX-2))	COX-1 activity (cyclooxygenase 1 (COX-1))	intracellular concentration of NO in the presence of MAS1 antagonist A779 (recombinant human MAS1; MAS1-transfected CHO cells)	intracellular concentration of NO (fluorescence) (recombinant human MAS1; MAS1-transfected CHO cells)	τ1/2 in human serum [2]	MAS1 agonist activity (summary statement) (recombinant human MAS1; MAS1-transfected CHO cells)	activity relative to that of peptide AT1-7 (recombinant human MAS1; at 10 nM, NO release assay)
CC[C@H](C)[C@H](NC(=O)[C@H](Cc1ccc(O)cc1)NC(=O)[C@@H](NC(=O)[C@H](CCCNC(=N)N)NC(=O)[C@@H](N)CC(=O)O)C(C)C)C(=O)N[C@@H](Cc1c[nH]cn1)C(=O)N1CCC[C@H]1C(=O)O [AT1-7, DRVYIHP]	inhibit tumor growth	reduce serum-stimulated growth of human lung cancer cells both in vitro and in vivo	reduction in cyclooxygenase-2 (COX-2) activity	no effect	A similar profile was obtained	increase the intracellular concentration of NO in a dose dependent manner	44 ± 3 min	–	–
GGVCPKILQRCRRDSDCPGACICRGNGYCGSGXRVYIHE [MCo-AT1-7, MCoTI-I cyclotide with AT1-7-derived peptide (Asp1 to diaminopropionic acid, Pro7 to Glu) grafted onto loop 6 via two isopeptide bonds]	–	–	–	–	no increase in the intracellular concentration of NO was detected	increase the intracellular concentration of NO in a dose dependent manner	–	potent MAS1 agonist, with similar activity to that of the peptide AT1-7	about 90%
